Experimental data published in US8853238B2, “Fused heterocyclic compound and use thereof for pest control” (Sumitomo Chemical Company, Limited, priority 2010, dated 2014).

Legend:
Format in all cases: in vivo
[1] = system: Aphis gossypii; assay: Test Example 2: root immersion of cucumber seedling, then inoculation with Aphis gossypii; details: 168 h; 500 ppm active ingredient; cucumber root part immersed in 5 ml; 30 Aphis gossypii inoculated one day after treatment; examined after further seven days
Protocol: A root part of a cucumber seedling (the first true leaf stage) from which soil had been washed off was immersed in 5 ml of each of the diluted solutions, and one day after treatment, on the cucumber leaf surface was inoculated with 30 Aphis gossypii (whole stage). After further seven days, the number of insect of living Aphis gossypii parasitized on the leaves of the cucumber was examined, and a control value was calculated according to the following equation: Control value (%)={1−(Cb×Tai)/(Cai×Tb))×100 wherein symbols represent as follows: Cb: the number of insects in a non-treated section before treatment, Cai: the number of insects in a non-treated section in observation, Tb: the number of insects in a treated-section before treatment, Tai: the number of insects in a treated-section in observation; wherein the non-treated section represents a section where the test diluted solution prepared by diluting the formulation without the present compound in Formulation Example 5 with the same amount of water as in the treated-section was used.

[2] = system: Nilaparvata lugens; assay: Test Example 5: drench at foot of rice seedling, release of Nilaparvata lugens larvae; details: soil, 144 h; 500 ppm active ingredient; rice seedling drenched at its foot with 5 ml, kept 7 days; twenty third-fourth instar larvae of Nilaparvata lugens; examined after 6 days
Protocol: On the other hand, a rice seedling (2 weeks after sowing, the second leaf stage) planted in a plastic cup was drenched at its foot with 5 ml of each of the diluted solutions, and kept in a greenhouse of 25° C. for 7 days. Twenty third-fourth instar larvae of Nilaparvata lugens were released, and further kept in the greenhouse for 6 days, then the number of insect of living Nilaparvata lugens parasitized on the rice was examined, and a control value was calculated according to the following equation: Control value (%)={1−(Cb×Tai)/(Cai×Tb))×100 wherein symbols represent as follows: Cb: the number of insects in a non-treated section before treatment, Cai: the number of insects in a non-treated section in observation, Tb: the number of insects in a treated-section before treatment, Tai: the number of insects in a treated-section in observation; wherein the non-treated section represents a section where the test diluted solution prepared by diluting the formulation without the present compound in Formulation Example 5 with the same amount of water as in the treated-section was used.

[3] = system: Bemisia tabaci; assay: Test Example 6: spray on tomato seedling with Bemisia tabaci instar larvae; details: 168 h; 500 ppm active ingredient; 20 ml/cup sprayed on tomato seedling with hatched Bemisia tabaci instar larvae; after 7 days at 25° C.
Protocol: On the other hand, Bemisia tabaci adult was released on a tomato seedling (the third true leaf stage) planted in a polyethylene cup, and made to lay eggs for about 72 hours. The tomato seedling was kept in a greenhouse for 8 days. When instar larvae hatched from the eggs, the above test spray solution was sprayed in the amount of 20 ml/cup. The cup was kept in a greenhouse at 25° C. After the keeping for 7 days, the number of surviving instar larvae on the tomato leaves was examined, and a control value was calculated according to the following equation: Control value (%)={1−(Cb×Tai)/(Cai×Tb))×100 wherein symbols represent as follows: Cb: the number of insects in a non-treated section before treatment, Cai: the number of insects in a non-treated section in observation, Tb: the number of insects in a treated-section before treatment, Tai: the number of insects in a treated-section in observation; wherein the non-treated section represents a section where the test spray solution prepared by diluting the formulation without the present compound in Formulation Example 5 with the same amount of water as in the treated-section was sprayed.

[4] = system: Aphis gossypii; assay: Test Example 3: drench at foot of cucumber seedling, then inoculation with Aphis gossypii; details: soil, 144 h; 500 ppm active ingredient; cucumber seedling drenched at its foot with 5 ml, kept 7 days at 25° C.; 30 Aphis gossypii inoculated; examined after 6 days; read-out: Control value
[5] = system: Aphis gossypii; assay: Test Example 1: spray on cucumber seedling inoculated with Aphis gossypii; details: topical, 144 h; 500 ppm active ingredient (Formulation Example 5 diluted with water); 20 ml sprayed on cucumber seedling with about 30 Aphis gossypii; six days after spraying
Protocol: On the other hand, on a cucumber seedling (the first true leaf stage) planted in a plastic cup was inoculated with about 30 Aphis gossypii, and leaving it for a day. Twenty ml of each of the above test spray solutions was sprayed on this seedling. Six days after spraying, the number of the surviving Aphis gossypii parasitized on the leaves of the cucumber was examined, and a control value was calculated according to the following equation: Control value (%)={1−(Cb×Tai)/(Cai×Tb))×100 wherein symbols represent as follows: Cb: the number of insects in a non-treated section before treatment, Cai: the number of insects in a non-treated section in observation, Tb: the number of insects in a treated-section before treatment, Tai: the number of insects in a treated-section in observation; wherein the non-treated section represents a section where the test spray solution prepared by diluting the formulation without the present compound in Formulation Example 5 with the same amount of water as in the treated-section was sprayed.

[6] = system: Nilaparvata lugens; assay: Test Example 4: spray on rice seedling, release of Nilaparvata lugens larvae; details: 144 h; 500 ppm active ingredient; rice seedling sprayed with 10 ml; third-fourth instar larvae of Nilaparvata lugens; after 6 days at 25° C.; read-out: Control value
[7] = system: Adoxophyes orana fasciata; assay: Test Example 8: spray on apple tree, release of Adoxophyes orana fasciata; details: in Malus domestica, 168 h; 500 ppm active ingredient; apple tree sprayed with 20 mL/cup; 60 first-instar Adoxophyes orana fasciata; after 7 days; read-out: Death rate
Protocol: On the other hand, an apple tree was planted in a plastic cup, and grown until the seventh-eighth leaf was spread. The apple tree was sprayed with 20 mL/cup of each of the test spray solution. After the test solution was dried, 60 first-instar Adoxophyes orana fasciata were released, and the cup was covered with a plastic cup upside-down which the bottom was cut off and a filter paper was put thereon. After 7 days, the number of living insects was counted, and a death rate was calculated according to the following equation: Death rate (%)=(Number of dead insects/Number of tested insects)×100

Measured: pest or weed control at 500 ppm

CCSc1ccccc1-c1nc2cc(C(F)(F)C(F)(F)F)cnc2n1C [Present Compound 55, 2-(2-ethylsulfanylphenyl)-3-methyl-6-pentafluoroethyl-3H-imidazo[4,5-b]pyridine]
not listed: [7]
≥ 90%: all other assays above

CCS(=O)(=O)c1cc(C(F)(F)F)ccc1-c1nc2cc(SC(F)(F)F)cnc2n1C [compound 306, 2-(2-ethylsulfonyl-4-trifluoromethylphenyl)-3-methyl-6-trifluoromethylsulfanyl-3H-imidazo[4,5-b]pyridine]
≥ 90%: [1] | [2] | [4] | [6]

CCS(=O)(=O)c1cc(-c2ncccn2)ccc1-c1nc2cc(C(F)(F)F)cnc2n1C [compound 333, 2-[2-ethylsulfonyl-4-(pyrimidine-2-yl)-phenyl)-3-methyl-6-trifluoromethyl-3H-imidazo[4,5-b]pyridine]
≥ 90%: [1] | [3] | [4] | [5]

CCS(=O)(=O)c1cc(C(F)(F)F)ccc1-c1nc2cc(C(F)(F)F)cnc2[nH]1 [compound 345, 2-(2-ethylsulfonyl-4-trifluoromethyl-phenyl)-6-trifluoromethyl-3H-imidazo[4,5-b]pyridine]
not listed: [1] | [6]
≥ 90%: all other assays above
